Experiments:
H2073 = assay: NSCLC panel sensitivity to 6-thio-dG, H2073; format: cell-based; conditions: Homo sapiens, NCI-H2073
Description: (§1) Two isogenic pairs of NSCLC cell lines were studied for sensitization to 6-thio-dG treatment.

H2086 = assay: NSCLC panel sensitivity to 6-thio-dG, H2086; format: cell-based, human; conditions: 3 μM every three days for 1 week, normalized to DMSO control
Procedure: (§2) A panel of NSCLC cell lines was tested for sensitivity to 6-thio-dG by performing a cell count after 1 week treatment. Briefly, cells were treated with 3 μM 6-thio-dG every three days for 1 week. Viable cells were counted at the end of treatment. Each 6-thiodG treated cell line was normalized to its DMSO treated control. The results of the cell count are depicted in FIG. 12, with the various cell lines arranged in descending resistance to 6-thio-dG from left to right. […] The IC50 values for the whole panel of tested cells are depicted in FIG. 13. The IC50 values for tested cells are depicted as a column scatter graph in FIG. 14.

HCC15 = assay: GI 50 determination, HCC15; format: cell-based; conditions: Homo sapiens
Procedure: (§3) Cells of each type listed in Table 2 were seeded in chamber slides.

BJ cells = assay: Telomere dysfunction induced foci (TIF) assay in normal BJ cells; format: cell-based, human; conditions: 10 μM, after 48 hours
Procedure: (§4) TIFs were quantified using Imaris software.
(§5) Normal BJ cells and […] BJ-hTERT cells were seeded in chamber slides. Following cell attachment, 6-thio-dG (10 μM) and 6-thio-G (10 μM) were added to fresh medium of each cell type. […] A control was used for each cell type as well, where DMSO was added to fresh medium of each cell type. […] These include almost all human cancer cells and certain human diseases involving acute and chronic inflammation.

[1] = tested on: A549 non-small cell lung cancer cell line; assay: CellTitreGlo survival, 7 days, A549; format: cell-based; conditions: Homo sapiens, 168 h
Procedure: Four different cell lines were treated with nine different doses of 6-thio-dG for 7 days. HCT116 colon cancer cell line (FIG. 9A), HCEC1 normal colonic cell line (FIG. 9C), A549 non-small cell lung cancer cell line (FIG. 9B), and BJ normal fibroblast cell line (FIG. 9D) were each treated. Survival fraction was measured by CellTitreGlo luminescent cell viability assay (Promega).

H324 = assay: NSCLC panel sensitivity to 6-thio-dG, H324; format: cell-based; conditions: Homo sapiens
Procedure: as §2

[2] = mouse, in vivo, 5 mg/kg
Procedure: Six WT mice were treated with 1.67 mg of 6-thio-dG/kg of body weight daily. Six WT mice were treated with 1.67 mg of 6-thio-G/kg of body weight daily. Six WT mice were treated with 5 mg of 6-thio-dG/kg of body weight daily. Six WT mice were treated with 5 mg of 6-thio-G/kg of body weight daily. The mice were given the appropriate dosage and weighed daily for 25 days.

H2085 = assay: NSCLC panel sensitivity to 6-thio-dG, H2085; format: cell-based; conditions: Homo sapiens
Procedure: as §2

H2009 = assay: GI 50 determination, H2009; format: cell-based; conditions: Homo sapiens, NCI-H2009
Procedure: as §3

H1819 = assay: 6-thio-dG on H1819 parental and paclitaxel/carboplatin resistant lines; format: cell-based, human; conditions: 1, 3, 10 μM
Procedure: The resulting resistant lines and their parents were tested for the effect of 6-thio-dG at 1, 3, and 10 μM concentrations.

HCT116 sub clones = assay: 6-thio-dG on HCT116 sub clone cell lines, cell count; format: cell-based, human; conditions: for sensitivity (cell count): 3 μM for 4 weeks
Procedure: In a separate experiment, 31 sub clone cell lines were derived from HCT116 cells that had no prior treatment with 6-thio-dG. […] At the end of one week, a cell count was performed of treated cells and cell percentage calculated relative to control cell count (FIG. 22). […] Four of the sub clone cell lines were further studied for resistance to 6-thio-dG. […] HCT116 Control group represent the main population treated with DMSO:water for 1-4 weeks. At the end of 4 weeks a cell count was performed to quantify cell growth. […] (FIG. 23)

H2343 = assay: NSCLC panel sensitivity to 6-thio-dG, H2343; format: cell-based; conditions: Homo sapiens
Procedure: as §2

HCC515 = assay: GI 50 determination, HCC515; format: cell-based; conditions: Homo sapiens
Procedure: as §3

[3] = tested on: paclitaxel/carboplatin resistant H1299; assay: 6-thio-dG on paclitaxel/carboplatin resistant H1299, cell count; format: cell-based, human; conditions: 1, 3, 10 μM every three days for one week
Procedure: A cell count was performed to measure cell growth/death.

BJ fibroblast cells = assay: Telomere length assay (TRF), BJ fibroblasts long-term culture; format: cell-based, human; conditions: 10 weeks, compared to untreated control
Procedure: For long-term cellular experiments, HCT116 (1,000 cells/cm^2) and BJ (10,000 cells/cm^2) cells were fed with 6-thio-dG (1, 3, 10 μM) containing medium every three days. The cells were counted and replated every week for 10-16 weeks. Additionally, HCT116 cells (1,000 cells/cm^2) were fed with 6-thio-G (1, 3, 10 μM) every three days and each week cells were counted, collected for TRF (Telomere Restriction Fragment) analysis and replated. HCT116 cells, following treatment with 10 μM 6-thio-dG for 12 weeks, were then treated with a combination of 10 μM 6-thio-dG and 3 μM GRN163L for 2-4 weeks.

BJ = assay: GI 50 determination, BJ; format: cell-based; conditions: Homo sapiens; BJ normal cell line
Procedure: as §3

A549 = assay: GI 50 determination, A549; format: cell-based; conditions: Homo sapiens
Procedure: as §3

H1693 = assay: NSCLC panel sensitivity to 6-thio-dG, H1693; format: cell-based, human
Procedure: A panel of NSCLC cell lines was tested for sensitivity to 6-thio-dG by performing a cell count after 1 week treatment. Briefly, cells were treated with 3 μM 6-thio-dG every three days for 1 week. Viable cells were counted at the end of treatment. Each 6-thiodG treated cell line was normalized to its DMSO treated control.
as §1

HCC827 = assay: GI 50 determination, HCC827; format: cell-based; conditions: Homo sapiens
Procedure: as §3

BJ-hTERT cells = assay: Telomere dysfunction induced foci (TIF) assay in BJ-hTERT cells; format: cell-based, human; conditions: 10 μM, after 48 hours
Procedure: as §4, §5

[4] = tested on: A549 human lung cancer cells; assay: Tumor growth in xenograft animal model with A549 cells; format: in vivo, mice; conditions: 2.5 mg/kg every day
Procedure: Doses of 2.5 mg/kg of 6-thio-dG and 2.5 mg/kg of 6-thio-G were injected every day into mice after tumor implantation and providing time for tumor initiation. DMSO injections were used for the control. The volume of the tumor was measured.

Nc1nc2c(ncn2[C@H]2C[C@H](O)[C@@H](CO)O2)c(=S)[nH]1 [6-thio-dG, 6-thio-2′-deoxyguanosine]
IC50 (H2073): > 700 nM
survival rate (H2086): greater than 50%
GI50 (HCC15): 800 nM
>4 TIFs per nucleus background subtracted (BJ cells): 2
IC50 [1]: 2400 nM
IC50 (H324): 2200 nM
weight loss [2]: only modest weight loss
IC50 (H2085): 3000 to 7000 nM
GI50 (H2009): 2600 nM
sensitivity (H1819): resistant to 6-thio-dG
sensitivity (cell count) (HCT116 sub clones; HCT116 clone #5): remained sensitive for the duration of the experiment
sensitivity (cell count relative to control) (HCT116 sub clones; HCT116 clone #8, 3 μM every three days for one week): became intrinsically resistant to 6-thio-dG treatment
sensitivity (cell count) (HCT116 sub clones; HCT116 clone #8): maintained resistance for the duration of the treatment
sensitivity (cell count) (HCT116 sub clones; HCT116 clone #15): remained sensitive for the duration of the experiment
sensitivity (cell count) (HCT116 sub clones; HCT116 sub clone #31): acquired resistance and by week 4 showed cell growth indistinguishable from controls
IC50 (H2343): 3000 to 7000 nM
GI50 (HCC515): 2400 nM
sensitivity (cell count) [3]: sensitive to all three concentrations
telomere shortening (TRF) (BJ fibroblast cells): did not show enhanced telomere shortening
GI50 (BJ): > 100000 nM
GI50 (A549): 2100 nM
survival rate (H1693; H1693, 3 μM every three days for 1 week, normalized to DMSO control): greater than 50%
IC50 (H1693; Homo sapiens, NCI-H1693): > 100000 nM
GI50 (HCC827): 800 nM
>4 TIFs per nucleus background subtracted (BJ-hTERT cells): 14
histology of residual tumors [4]: mostly fibrotic and often associated with apoptotic and inflammatory cells
rate of tumor growth (tumor volume) ([4]; compared to control and 6-thio-G): rate of tumor growth was less

— US12070472B2, “Treatment of drug resistant proliferative diseases with telomerase mediated telomere altering compounds” (The Board of Regents of the University of Texas System, priority 2016, dated 2024)
